Measurements reported in patent US10143201B2, “Fungicidal compositions” (Syngenta Crop Protection LLC, priority 2007, dated 2018).
Several values for one entry are separate records, joined by “and”; a condition that tells them apart may be missing. Equal values may be shown once.

What was measured:
Septoria tritici = experiment: Fungicidal action against Septoria tritici (leaf blotch), microtiter growth inhibition; assay type: cell-based; conditions: alone
Method: Example B3: Fungicidal Action Against Septoria tritici (Leaf Blotch)
(§1) Conidia of the fungus from cryogenic storage are directly mixed into nutrient broth (PDB potato dextrose broth). After placing a (DMSO) solution of the test compounds into a microtiter plate (96-well format) the nutrient broth containing the fungal spores is added. The test plates are incubated at 24° C. and the inhibition of growth is evaluated after 4 days. The expected fungicidal action is calculated according to the Colby method.

[1] = tested on: Cercospora arachidicola (syn. Mycosphaerella arachidis); experiment: Fungicidal action against Cercospora arachidicola (brown leaf spot of groundnut), microtiter growth inhibition; assay type: cell-based; conditions: compound alone
Method: Example B8: Fungicidal Action Against Cercospora arachidicola (Syn. Mycosphaerella arachidis), Brown Leaf Spot of Groundnut (Peanut)
as §1, with “24 C” for “24° C.”, “7” for “4”, “days.” for “days. The expected fungicidal action is calculated according to the Colby method.”

Gaeumannomyces graminis = experiment: Fungicidal action against Gaeumannomyces graminis (take-all of cereals), microtiter growth inhibition; assay type: cell-based; conditions: compound alone
Method: Example B7: Fungicidal Action Against Gaeumannomyces graminis (Take-all of Cereals)
as §1, with “Mycelial fragments” for “Conidia”, “24 C” for “24° C.”, “days.” for “days. The expected fungicidal action is calculated according to the Colby method.”

[2] = tested on: Pseudocercosporella herpotrichoides (syn. Tapesia yallundae); experiment: Fungicidal action against Pseudocercosporella herpotrichoides (eye spot of cereals), microtiter growth inhibition; assay type: cell-based; conditions: alone
Method: Example B5: Funicidal Action Against Pseudocercosporella herpotrichoides (Syn. Tapesia yallundae), Eye Spot of Cereals
as §1

Phakopsora pachyrhizi = experiment: Action against Asian soybean rust, leaf disc test; assay type: in vivo; conditions: 14 days after inoculation
Method: Example B-1: Action Against Asian Soybean Rust (Phakopsora pachyrhizi)—Leaf Disc Test
Whole soybean plants (variety brand Williams82) are treated with the recited active ingredients 4 weeks after planting. 1 day after spraying leaf disks are cut from the first trifoliate leaf. Five repetitions at each rate are conducted. The leaf disks are inoculated with Phakopsora pachyrhizi (Asian soybean rust) one day after treatment. Evaluation of the leaf disks is conducted fourteen days after inoculation and the mean percent infestation of the five repetitions is calculated. Standard EC100 formulations are used. The rates of the active ingredients used are given in Table B1 as g active ingredient (a.i.)/ha.

[3] = tested on: Monopraphella nivalis (syn. Microdochium nivale, Fusarium nivale); experiment: Fungicidal action against Monopraphella nivalis (snow mould, foot rot of cereals), microtiter growth inhibition; assay type: cell-based; conditions: compound alone; for inhibition at 0.25 ppm: 0.2500 ppm
Method: Example B9: Fungicidal Action Against Monopraphella nivalis (Syn. Microdochium nivale, Fusarium nivale), Snow Mould, Foot Rot of Cereals
as §1, with “24 C” for “24° C.”, “days.” for “days. The expected fungicidal action is calculated according to the Colby method.”

Botrytis cinerea = experiment: Fungicidal action against Botrytis cinerea (gray mould), microtiter growth inhibition; assay type: cell-based; conditions: alone
Method: Example B2: Fungicidal Action Against Botrytis cinerea (Gray Mould)
as §1

Pyrenophora teres = experiment: Fungicidal action against Pyrenophora teres (net blotch), microtiter growth inhibition; assay type: cell-based
Method: Example B6: Fungicidal Action Against Pyrenophora teres (Net Blotch)
as §1

Alternaria solani = experiment: Fungicidal action against Alternaria solani (early blight tomato/potato), microtiter growth inhibition; assay type: cell-based; conditions: alone
Method: Example B4: Fungicidal Action Against Alternaria solani (Early Blight Tomato/Potato)
as §1, with “after 3” for “after 4”

[4] = tested on: Colletotrichum lagenarium (syn. Glomerella lagenarium); experiment: Fungicidal action against Colletotrichum lagenarium (anthracnose of cucurbits), microtiter growth inhibition; assay type: cell-based; conditions: compound alone
Method: Example B10: Fungicidal Action Against Colletotrichum lagenarium (Syn. Glomerella lagenarium), Anthracnose of Cucurbits Conidia of the fungus from cryogenic storage are directly mixed into nutrient broth (PDB potato dextrose broth). After placing a (DMSO) solution of the test compounds into a microtiter plate (96-well format) the nutrient broth containing the fungal spores is added. The test plates are incubated at 24 C and the inhibition of growth is evaluated after 3 days.

[5] = Microdochium nivale, 0.0625 ppm
[6] = Microdochium nivale, 0.1250 ppm

Cn1cc(C(=O)Nc2cccc3c2C2CCC3C2=C(Cl)Cl)c(C(F)(F)F)n1 (centres unmarked)
melting point: 183 to 188 °C and 179 to 181 °C

Cn1cc(C(=O)Nc2cccc3c2C2CCC3C2=C(Cl)Cl)c(C(F)F)n1 (centres unmarked) [Compound A-1.1, 3-difluoromethyl-1-methyl-1H-pyrazole-4-carboxylic acid (9-dichloromethylidene-benzonorbornene-5-yl)amide]
% activity (Septoria tritici; 0.0625 ppm): 20% | % activity (Septoria tritici; 0.1250 ppm): 50% | % activity (Septoria tritici; 0.2500 ppm): 70% | % activity (Septoria tritici; 0.5000 ppm): 90% | % activity ([1]; 0.0039 ppm): 0% | % activity ([1]; 0.0078 ppm): 0% | % activity ([1]; 0.0156 ppm): 20% | % activity ([1]; 0.0313 ppm): 70% | % activity (Gaeumannomyces graminis; 0.0156 ppm): 50% and 70% | % activity ([2]; 0.0039 ppm): 0% | % activity ([2]; 0.0078 ppm): 0% | % activity ([2]; 0.0625 ppm): 70% | % Control of Phakopsora pachyrhizi (Phakopsora pachyrhizi; 31.25 g a.i./ha): 36% | % Control of Phakopsora pachyrhizi (Phakopsora pachyrhizi; 62.5 g a.i./ha): 36% | % Control of Phakopsora pachyrhizi (Phakopsora pachyrhizi; 125 g a.i./ha): 82% | % Control of Phakopsora pachyrhizi (Phakopsora pachyrhizi; 250 g a.i./ha): 87% | % activity ([3]; 0.0313 ppm): 20% | % activity ([3]; 0.0625 ppm): 50% | % activity ([3]; 0.1250 ppm): 90% | % activity (Botrytis cinerea; 0.0156 ppm): 0% | % activity (Botrytis cinerea; 0.0313 ppm): 0% | % activity (Botrytis cinerea; 0.0625 ppm): 20% | % activity (Botrytis cinerea; 0.1250 ppm): 20% | % activity (Botrytis cinerea; 0.5000 ppm): 50% and 70% | % activity (Botrytis cinerea; 1.0000 ppm): 90% | % activity (Pyrenophora teres; 0.0078 ppm, alone): 0% | % activity (Pyrenophora teres; 0.0313 ppm, alone): 20% | % activity (Pyrenophora teres; 0.0625 ppm, alone): 20% | % activity (Pyrenophora teres; 0.1250 ppm, alone): 20% | % activity (Pyrenophora teres; 0.2500 ppm, alone): 50% | % activity (Pyrenophora teres; compound alone, 0.0313 ppm): 20% | % activity (Pyrenophora teres; compound alone, 0.0625 ppm): 20% | % activity (Pyrenophora teres; compound alone, 0.2500 ppm): 50% | % activity (Pyrenophora teres; compound alone, 0.5000 ppm): 50% and 70% | % activity (Pyrenophora teres; compound alone, 1.0000 ppm): 70% | % activity (Pyrenophora teres; compound alone, 2.0000 ppm): 70% | % activity (Alternaria solani; 0.0078 ppm): 0% | % activity (Alternaria solani; 0.0156 ppm): 20% | % activity (Alternaria solani; 0.0313 ppm): 20% | % activity (Alternaria solani; 0.0625 ppm): 50% | % activity (Alternaria solani; 0.1250 ppm): 50% | % activity (Alternaria solani; 0.2500 ppm): 50%

Cn1cc(C(=O)Nc2cccc3c2C2CCC3C2=C(F)F)c(C(F)F)n1 (centres unmarked) [Compound A-1.2, 3-difluoromethyl-1-methyl-1H-pyrazole-4-carboxylic acid (9-difluoromethylidene-benzonorbornene-5-yl)amide]
% activity ([4]; 0.0313 ppm): 0% | % activity ([4]; 0.0625 ppm): 0% | % activity ([4]; 0.1250 ppm): 0% | % activity ([4]; 0.5000 ppm): 20% | % activity ([4]; 1.0000 ppm): 50% | % activity (Septoria tritici; 0.0078 ppm): 0% | % activity (Septoria tritici; 0.0156 ppm): 0% | % activity (Septoria tritici; 0.1250 ppm): 0% | % activity (Septoria tritici; 0.2500 ppm): 20% | % activity (Septoria tritici; 0.5000 ppm): 50% | % activity (Septoria tritici; 1.0000 ppm): 70% | % activity ([1]; 0.0156 ppm): 0% | % activity ([1]; 0.0313 ppm): 0% | % activity ([1]; 0.0625 ppm): 0% | % activity ([1]; 0.1250 ppm): 20% | % activity ([1]; 0.2500 ppm): 70% and 50% | % activity (Gaeumannomyces graminis; 0.0156 ppm): 0% | % activity (Gaeumannomyces graminis; 0.0313 ppm): 0% | % activity (Gaeumannomyces graminis; 0.0625 ppm): 0% | % activity (Gaeumannomyces graminis; 0.1250 ppm): 0% | % activity (Gaeumannomyces graminis; 0.5000 ppm): 70% and 90% | % activity ([2]; 0.0039 ppm): 0% | % activity ([2]; 0.0078 ppm): 0% | % activity ([2]; 0.0156 ppm): 0% | % activity ([2]; 0.0313 ppm): 0% | % activity ([2]; 0.0625 ppm): 0% | % activity ([2]; 0.5000 ppm): 70% | % Control of Phakopsora pachyrhizi (Phakopsora pachyrhizi; 31.25 g a.i./ha): 39% | % Control of Phakopsora pachyrhizi (Phakopsora pachyrhizi; 62.5 g a.i./ha): 54% | % Control of Phakopsora pachyrhizi (Phakopsora pachyrhizi; 125 g a.i./ha): 44% | % Control of Phakopsora pachyrhizi (Phakopsora pachyrhizi; 250 g a.i./ha): 94% | % activity ([3]; 1.0000 ppm): 50% | % activity ([3]; 2.0000 ppm): 70% | % activity (Botrytis cinerea; 0.0313 ppm): 0% | % activity (Botrytis cinerea; 0.1250 ppm): 20% | % activity (Botrytis cinerea; 0.2500 ppm): 20% | % activity (Botrytis cinerea; 0.5000 ppm): 20% | % activity (Botrytis cinerea; 1.0000 ppm): 50% | % activity (Botrytis cinerea; 2.0000 ppm): 70% | % activity (Pyrenophora teres; 0.0078 ppm, alone): 0% | % activity (Pyrenophora teres; 0.0156 ppm, alone): 0% | % activity (Pyrenophora teres; 0.0313 ppm, alone): 0% | % activity (Pyrenophora teres; 0.1250 ppm, alone): 20% | % activity (Pyrenophora teres; 0.2500 ppm, alone): 20% | % activity (Pyrenophora teres; compound alone, 0.0313 ppm): 0% | % activity (Pyrenophora teres; compound alone, 0.1250 ppm): 20% | % activity (Pyrenophora teres; compound alone, 0.2500 ppm): 20% | % activity (Pyrenophora teres; compound alone, 0.5000 ppm): 50% | % activity (Pyrenophora teres; compound alone, 1.0000 ppm): 50% | % activity (Pyrenophora teres; compound alone, 2.0000 ppm): 70% | % activity (Alternaria solani; 0.0313 ppm): 0% | % activity (Alternaria solani; 0.1250 ppm): 20% | % activity (Alternaria solani; 0.2500 ppm): 50% | % activity (Alternaria solani; 0.5000 ppm): 50%

Cn1cc(C(=O)Nc2cccc3c2C2CCC3C2=C(Br)Br)c(C(F)F)n1 (centres unmarked) [Compound A-1.3, 3-difluoromethyl-1-methyl-1H-pyrazole-4-carboxylic acid (9-dibromomethylidene-benzonorbornene-5-yl)amide]
% Control of Phakopsora pachyrhizi (Phakopsora pachyrhizi; 31.25 g a.i./ha): 36% | % Control of Phakopsora pachyrhizi (Phakopsora pachyrhizi; 62.5 g a.i./ha): 36% | % Control of Phakopsora pachyrhizi (Phakopsora pachyrhizi; 125 g a.i./ha): 54% | % Control of Phakopsora pachyrhizi (Phakopsora pachyrhizi; 250 g a.i./ha): 93%

Cn1cc(C(=O)Nc2ccc(F)cc2-c2ccc(Cl)c(Cl)c2)c(C(F)F)n1 [Compound B-5.11, 3-difluoromethyl-1-methyl-1H-pyrazole-4-carboxylic acid (3′,4′-dichloro-5-fluoro-1,1′-biphenyl-2-yl)-amide]
inhibition at 0.0039 ppm ([1]; Mycosphaerella arachidis, 0.0039 ppm, read-out: % activity): 0% | inhibition at 0.0078 ppm ([1]; Mycosphaerella arachidis, 0.0078 ppm, read-out: % activity): 0% | inhibition at 0.0156 ppm ([1]; Mycosphaerella arachidis, 0.0156 ppm): 20% | inhibition at 0.0313 ppm ([1]; Mycosphaerella arachidis, 0.0313 ppm): 70% | inhibition at 0.0313 ppm ([3]; Microdochium nivale, 0.0313 ppm): 0% | inhibition at 0.0625 ppm [3, 5]: 0% | inhibition at 0.125 ppm [3, 6]: 0% | inhibition at 0.25 ppm ([3]; Microdochium nivale): 20%

CC(Cc1ccc(C(C)(C)C)cc1)CN1C[C@@H](C)O[C@@H](C)C1 (some centres unmarked) [Fenpropimorph]
inhibition at 0.25 ppm ([4]; Colletotrichum orbiculare, 0.2500 ppm): 0% | inhibition at 0.5 ppm ([4]; Colletotrichum orbiculare, 0.5000 ppm): 0% | inhibition at 1 ppm ([4]; Colletotrichum orbiculare, 1.0000 ppm): 20% | inhibition at 2 ppm ([4]; Colletotrichum orbiculare, 2.0000 ppm): 20% | inhibition at 0.0625 ppm ([1]; Mycosphaerella arachidis, 0.0625 ppm): 0% | inhibition at 0.125 ppm ([1]; Mycosphaerella arachidis, 0.1250 ppm): 0% | inhibition at 0.25 ppm ([1]; Mycosphaerella arachidis, 0.2500 ppm): 20% | inhibition at 0.5 ppm ([1]; Mycosphaerella arachidis, 0.5000 ppm): 50% | inhibition at 0.25 ppm (Gaeumannomyces graminis; Gaeumannomyces graminis, 0.2500 ppm): 0% | inhibition at 0.5 ppm (Gaeumannomyces graminis; Gaeumannomyces graminis, 0.5000 ppm): 0% | inhibition at 1 ppm (Gaeumannomyces graminis; Gaeumannomyces graminis, 1.0000 ppm): 0% | inhibition at 2 ppm (Gaeumannomyces graminis; Gaeumannomyces graminis, 2.0000 ppm): 20% | inhibition at 0.0625 ppm [3, 5]: 0% | inhibition at 0.125 ppm [3, 6]: 0% | inhibition at 0.25 ppm ([3]; Microdochium nivale): 0% | inhibition at 0.5 ppm ([3]; Microdochium nivale, 0.5000 ppm): 0% | inhibition at 1 ppm ([3]; Microdochium nivale, 1.0000 ppm): 0% | inhibition at 2 ppm ([3]; Microdochium nivale, 2.0000 ppm): 0%

CC(C)C1CCC(Cc2ccc(Cl)cc2)C1(O)Cn1cncn1 (centres unmarked) [Ipconazole]
inhibition at 0.125 ppm ([4]; Colletotrichum orbiculare, 0.1250 ppm): 20%
